Patent US20230233569A1 (Revolution Medicines, Inc., priority 2020, published 2023)

Legend:
NCI-H358 (K-Ras G12C) = test: CellTiter-Glo cell viability assay; type: cell-based; conditions: Homo sapiens, NCI-H358, 120 h, read-out: H358 Cell Viability assay data IC50, K-Ras G12C, 5-day treatment
Method in brief: (§1)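 Direct compound addition to plated cells; 5-day exposure; ~30 min RT equilibration; CellTiter-Glo luminescence. Normalization: (sample/avg DMSO)*100; 4-parameter logistic curve fit.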

AsPC-1 (K-Ras G12D) [1] = test: CellTiter-Glo cell viability assay; type: cell-based; conditions: Homo sapiens, ASPC1, 120 h, read-out: AsPC-1 Cell Viability assay data IC50, K-Ras G12D, 5-day treatment
Method in brief: as §1

KRAS G12S = KRAS G12S (Homo sapiens, UniProt P01116+P62937, G12S); test: Ras-Raf disruption / FRET / MOA assay (BRAF RBD); type: biochemical; conditions: KRAS G12S FRET data IC50, Ras-Raf disruption, with Cyclophilin A
Method in brief: (§2)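 Compound-induced Ras–Cyclophilin A ternary complex disrupting BRAF RBD binding, read as IC50 from reduced TR-FRET ratio relative to DMSO. Final: Ras-GMPPNP 12.5 nM, BRAF RBD 50 nM, Cyclophilin A 25 μM, top compound 30 μM (3-fold, 10 points); 3 h at 25 °C, then 1.5 h with detection antibodies.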

NRAS Q61R = NRAS Q61R (Homo sapiens, UniProt P01111+P62937, Q61R); test: Ras-Raf disruption / FRET / MOA assay (BRAF RBD); type: biochemical
Method in brief: as §2

NRAS Q61K = NRAS Q61K (Homo sapiens, UniProt P01111+P62937, Q61K); test: Ras-Raf disruption / FRET / MOA assay (BRAF RBD); type: biochemical
Method in brief: as §2

NRAS G12C = NRAS G12C (Homo sapiens, UniProt P01111+P62937, G12C); test: Ras-Raf disruption / FRET / MOA assay (BRAF RBD); type: biochemical; conditions: NRAS G12C FRET data IC50, NRAS G12C
Method in brief: as §2

KRAS G12D = KRAS G12D (Homo sapiens, UniProt P01116+P62937, G12D); test: Ras-Raf disruption / FRET / MOA assay (BRAF RBD); type: biochemical; conditions: KRAS G12D FRET data IC50, Ras-Raf disruption, with Cyclophilin A
Method in brief: as §2

KRAS G13D = KRAS G13D (Homo sapiens, UniProt P01116+P62937, G13D); test: Ras-Raf disruption / FRET / MOA assay (BRAF RBD); type: biochemical; conditions: KRAS G13D FRET data IC50, Ras-Raf disruption, with Cyclophilin A
Method in brief: as §2

NRAS WT = NRAS WT (Homo sapiens, UniProt P01111+P62937); test: Ras-Raf disruption / FRET / MOA assay (BRAF RBD); type: biochemical
Method in brief: as §2

KRAS WT = KRAS WT (Homo sapiens, UniProt P01116+P62937); test: Ras-Raf disruption / FRET / MOA assay (BRAF RBD); type: biochemical; conditions: KRAS WT FRET data IC50, Ras-Raf disruption, with Cyclophilin A
Method in brief: as §2

KRAS G12V = KRAS G12V (Homo sapiens, UniProt P01116+P62937, G12V); test: Ras-Raf disruption / FRET / MOA assay (BRAF RBD); type: biochemical; conditions: KRAS G12V FRET data IC50, Ras-Raf disruption, with Cyclophilin A
Method in brief: as §2

KRAS G13C = KRAS G13C (Homo sapiens, UniProt P01116+P62937, G13C); test: Ras-Raf disruption / FRET / MOA assay (BRAF RBD); type: biochemical; conditions: KRAS G13C FRET data IC50, Ras-Raf disruption, with Cyclophilin A
Method in brief: as §2

KRAS Q61H = KRAS Q61H (Homo sapiens, UniProt P01116+P62937, Q61H); test: Ras-Raf disruption / FRET / MOA assay (BRAF RBD); type: biochemical
Method in brief: as §2

AsPC-1 (K-Ras G12D) [2] = test: Potency assay: pERK; type: cell-based; conditions: Homo sapiens, ASPC1, read-out: pERK EC50
KRAS G12C = KRAS G12C (Homo sapiens, UniProt P01116+P62937, G12C); test: Ras-Raf disruption / FRET / MOA assay (BRAF RBD); type: biochemical; conditions: KRAS G12C FRET data IC50, Ras-Raf disruption, with Cyclophilin A
Method in brief: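 TR-FRET read-out after 1.5 h with anti-His Eu-W1024 (10 nM) and anti-GST APC (50 nM), following 3 h at 25 °C of compound (top 30 μM, 3-fold, 10 points) with 25 μM Cyclophilin A, 12.5 nM GMPPNP-loaded K-Ras G12C and 50 nM BRAF RBD; IC50 reported.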

Sequence of NRAS Q61R (P01111 whole entry Q61R): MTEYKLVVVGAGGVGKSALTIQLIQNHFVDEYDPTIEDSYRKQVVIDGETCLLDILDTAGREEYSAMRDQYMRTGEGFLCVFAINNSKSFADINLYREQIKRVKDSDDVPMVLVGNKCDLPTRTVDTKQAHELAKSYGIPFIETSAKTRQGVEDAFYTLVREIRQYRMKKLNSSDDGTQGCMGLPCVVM
Sequence of NRAS Q61R (P62937 whole entry): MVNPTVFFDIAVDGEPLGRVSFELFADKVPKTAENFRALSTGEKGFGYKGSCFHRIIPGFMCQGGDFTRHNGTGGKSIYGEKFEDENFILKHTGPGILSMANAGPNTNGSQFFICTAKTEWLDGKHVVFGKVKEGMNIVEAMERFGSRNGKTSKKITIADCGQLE
Sequence of NRAS G12C (P01111 whole entry G12C): as the sequence (P01111 whole entry Q61R) above, with G12C, R61Q counted along it
Sequence of NRAS G12C (P62937 whole entry): as the sequence (P62937 whole entry) above
Sequence of KRAS G12V (P01116 1-169 isoform P01116-2 G12V limits assumed): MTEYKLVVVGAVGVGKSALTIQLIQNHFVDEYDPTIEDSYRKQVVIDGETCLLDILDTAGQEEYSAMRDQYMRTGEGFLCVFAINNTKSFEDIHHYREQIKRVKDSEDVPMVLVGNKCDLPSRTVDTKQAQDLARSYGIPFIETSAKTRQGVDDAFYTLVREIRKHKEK
Sequence of KRAS G12V (P62937 whole entry): as the sequence (P62937 whole entry) above
Sequence of KRAS G13C (P01116 1-169 isoform P01116-2 G13C limits assumed): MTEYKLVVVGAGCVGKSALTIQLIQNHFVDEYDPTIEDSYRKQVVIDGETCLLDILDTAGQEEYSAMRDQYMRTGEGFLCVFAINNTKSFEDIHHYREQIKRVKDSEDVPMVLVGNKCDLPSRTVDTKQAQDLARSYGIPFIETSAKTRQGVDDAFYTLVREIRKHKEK
Sequence of KRAS G13C (P62937 whole entry): as the sequence (P62937 whole entry) above
Sequence of KRAS G12D (P01116 1-169 isoform P01116-2 G12D limits assumed): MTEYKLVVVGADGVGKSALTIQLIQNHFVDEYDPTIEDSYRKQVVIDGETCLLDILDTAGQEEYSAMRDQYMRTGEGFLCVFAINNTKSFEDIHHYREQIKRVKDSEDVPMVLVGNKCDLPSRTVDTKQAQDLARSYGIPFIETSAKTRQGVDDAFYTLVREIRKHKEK
Sequence of KRAS G12D (P62937 whole entry): as the sequence (P62937 whole entry) above
Sequence of KRAS G13D (P01116 1-169 isoform P01116-2 G13D limits assumed): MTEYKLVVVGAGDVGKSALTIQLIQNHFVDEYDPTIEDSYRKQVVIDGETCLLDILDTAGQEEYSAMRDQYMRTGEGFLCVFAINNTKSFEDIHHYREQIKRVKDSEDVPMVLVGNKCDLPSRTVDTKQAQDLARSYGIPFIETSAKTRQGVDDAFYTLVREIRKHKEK
Sequence of KRAS G13D (P62937 whole entry): as the sequence (P62937 whole entry) above
Sequence of KRAS G12C (P01116 1-169 isoform P01116-2 G12C limits assumed): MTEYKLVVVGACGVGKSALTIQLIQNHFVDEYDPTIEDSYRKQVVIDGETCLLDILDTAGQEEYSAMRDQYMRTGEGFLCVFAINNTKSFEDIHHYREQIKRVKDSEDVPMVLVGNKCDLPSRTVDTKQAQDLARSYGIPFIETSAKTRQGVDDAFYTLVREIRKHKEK
Sequence of KRAS G12C (P62937 whole entry): as the sequence (P62937 whole entry) above
Sequence of NRAS WT (P01111 whole entry): as the sequence (P01111 whole entry Q61R) above, with R61Q counted along it
Sequence of NRAS WT (P62937 whole entry): as the sequence (P62937 whole entry) above
Sequence of NRAS Q61K (P01111 whole entry Q61K): as the sequence (P01111 whole entry Q61R) above, with R61K counted along it
Sequence of NRAS Q61K (P62937 whole entry): as the sequence (P62937 whole entry) above
Sequence of KRAS G12S (P01116 1-169 isoform P01116-2 G12S limits assumed): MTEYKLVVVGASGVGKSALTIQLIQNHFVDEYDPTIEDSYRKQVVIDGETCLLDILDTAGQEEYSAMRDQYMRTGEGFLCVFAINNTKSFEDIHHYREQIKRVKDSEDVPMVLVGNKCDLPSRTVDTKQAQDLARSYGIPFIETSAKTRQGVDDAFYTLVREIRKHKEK
Sequence of KRAS G12S (P62937 whole entry): as the sequence (P62937 whole entry) above
Sequence of KRAS WT (P01116 1-169 isoform P01116-2 limits assumed): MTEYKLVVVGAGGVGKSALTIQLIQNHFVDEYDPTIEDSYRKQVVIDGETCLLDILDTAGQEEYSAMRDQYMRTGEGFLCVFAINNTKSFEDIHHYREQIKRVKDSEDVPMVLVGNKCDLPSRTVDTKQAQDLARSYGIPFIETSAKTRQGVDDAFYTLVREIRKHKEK
Sequence of KRAS WT (P62937 whole entry): as the sequence (P62937 whole entry) above
Sequence of KRAS Q61H (P01116 1-169 isoform P01116-2 Q61H limits assumed): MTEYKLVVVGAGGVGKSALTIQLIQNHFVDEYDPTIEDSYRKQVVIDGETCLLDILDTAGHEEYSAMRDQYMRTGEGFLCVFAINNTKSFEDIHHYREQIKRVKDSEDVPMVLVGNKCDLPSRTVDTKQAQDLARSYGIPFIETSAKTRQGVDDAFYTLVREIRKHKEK
Sequence of KRAS Q61H (P62937 whole entry): as the sequence (P62937 whole entry) above

## CCn1c(-c2cccnc2[C@H](C)OC)c2c3cc(ccc31)-c1cc(O)cc(c1)C[C@H](NC(=O)[C@H](C(C)C)N(C)C(=O)CN(C)C(=O)[C@H]1N[C@H]1C(C)C)C(=O)N1CCC[C@H](N1)C(=O)OCC(C)(C)C2 [Example 265]
NCI-H358 (K-Ras G12C)
  IC50: 10 to 100 nM
AsPC-1 (K-Ras G12D) [1]
  IC50: 100 to 1000 nM
KRAS G12S
  IC50: 10 to 100 nM
NRAS Q61R
  IC50: 100 to 1000 nM
NRAS Q61K
  IC50: 100 to 1000 nM
NRAS G12C
  IC50: 10 to 100 nM
KRAS G12D
  IC50: 10 to 100 nM
KRAS G13D
  IC50: 10 to 100 nM
NRAS WT
  IC50: 10 to 100 nM
KRAS WT
  IC50: 10 to 100 nM
KRAS G12V
  IC50: 10 to 100 nM
KRAS G13C
  IC50: 10 to 100 nM
KRAS Q61H
  IC50: 10 to 100 nM
AsPC-1 (K-Ras G12D) [2]
  EC50: < 5000 nM
KRAS G12C
  IC50: 10 to 100 nM

## CCn1c(-c2cccnc2[C@H](C)OC)c2c3cc(ccc31)-c1cc(O)cc(c1)C[C@H](NC(=O)[C@H](C(C)C)N(C)C(=O)CN(C)C(=O)[C@H]1CN1CCCC#N)C(=O)N1CCC[C@H](N1)C(=O)OCC(C)(C)C2 (stereo partly drawn) [Example 273]
NCI-H358 (K-Ras G12C)
  IC50: < 10 nM
AsPC-1 (K-Ras G12D) [1]
  IC50: 100 to 1000 nM
KRAS G12S
  IC50: 10 to 100 nM
NRAS Q61R
  IC50: 100 to 1000 nM
NRAS Q61K
  IC50: 100 to 1000 nM
NRAS G12C
  IC50: < 10 nM
KRAS G12D
  IC50: 100 to 1000 nM
KRAS G13D
  IC50: 100 to 1000 nM
NRAS WT
  IC50: 10 to 100 nM
KRAS WT
  IC50: 10 to 100 nM
KRAS G12V
  IC50: 10 to 100 nM
KRAS G13C
  IC50: 10 to 100 nM
KRAS Q61H
  IC50: 10 to 100 nM
AsPC-1 (K-Ras G12D) [2]
  EC50: < 5000 nM
KRAS G12C
  IC50: < 10 nM

## CCn1c(-c2cccnc2[C@H](C)OC)c2c3cc(ccc31)-c1cc(O)cc(c1)C[C@H](NC(=O)[C@H](C(C)C)N(C)C(=O)CN(C)C(=O)[C@@H]1N[C@@H]1C(C)C)C(=O)N1CCC[C@H](N1)C(=O)OCC(C)(C)C2 [Example 264]
NCI-H358 (K-Ras G12C)
  IC50: 10 to 100 nM
AsPC-1 (K-Ras G12D) [1]
  IC50: 100 to 1000 nM
KRAS G12S
  IC50: < 10 nM
NRAS Q61R
  IC50: 10 to 100 nM
NRAS Q61K
  IC50: 10 to 100 nM
NRAS G12C
  IC50: < 10 nM
KRAS G12D
  IC50: 10 to 100 nM
KRAS G13D
  IC50: 10 to 100 nM
NRAS WT
  IC50: < 10 nM
KRAS WT
  IC50: < 10 nM
KRAS G12V
  IC50: 10 to 100 nM
KRAS G13C
  IC50: 10 to 100 nM
KRAS Q61H
  IC50: < 10 nM
AsPC-1 (K-Ras G12D) [2]
  EC50: < 5000 nM
KRAS G12C
  IC50: < 10 nM

## CCn1c(-c2cccnc2[C@H](C)OC)c2c3cc(ccc31)-c1cc(O)cc(c1)C[C@H](NC(=O)[C@H](C(C)C)N(C)C(=O)CN(C)C(=O)[C@@]1(C)CN1)C(=O)N1CCC[C@H](N1)C(=O)OCC(C)(C)C2 [Example 256]
NCI-H358 (K-Ras G12C)
  IC50: 10 to 100 nM
AsPC-1 (K-Ras G12D) [1]
  IC50: 100 to 1000 nM
KRAS G12S
  IC50: 10 to 100 nM
NRAS Q61R
  IC50: 100 to 1000 nM
NRAS Q61K
  IC50: 100 to 1000 nM
NRAS G12C
  IC50: 10 to 100 nM
KRAS G12D
  IC50: 10 to 100 nM
KRAS G13D
  IC50: 10 to 100 nM
NRAS WT
  IC50: 10 to 100 nM
KRAS WT
  IC50: 10 to 100 nM
KRAS G12V
  IC50: 10 to 100 nM
KRAS G13C
  IC50: < 10 nM
KRAS Q61H
  IC50: 10 to 100 nM
AsPC-1 (K-Ras G12D) [2]
  EC50: < 5000 nM
KRAS G12C
  IC50: 10 to 100 nM

## CCn1c(-c2cccnc2[C@H](C)OC)c2c3cc(ccc31)-c1cc(O)cc(c1)C[C@H](NC(=O)[C@H](C(C)C)N(C)C(=O)CN(C)C(=O)[C@@H]1N[C@@H]1C(F)(F)F)C(=O)N1CCC[C@H](N1)C(=O)OCC(C)(C)C2 [Example 258]
NCI-H358 (K-Ras G12C)
  IC50: 10 to 100 nM
AsPC-1 (K-Ras G12D) [1]
  IC50: 100 to 1000 nM
KRAS G12S
  IC50: 10 to 100 nM
NRAS Q61R
  IC50: 10 to 100 nM
NRAS Q61K
  IC50: 10 to 100 nM
NRAS G12C
  IC50: 10 to 100 nM
KRAS G12D
  IC50: 10 to 100 nM
KRAS G13D
  IC50: 10 to 100 nM
NRAS WT
  IC50: < 10 nM
KRAS WT
  IC50: 10 to 100 nM
KRAS G12V
  IC50: 10 to 100 nM
KRAS G13C
  IC50: < 10 nM
KRAS Q61H
  IC50: < 10 nM
AsPC-1 (K-Ras G12D) [2]
  EC50: < 5000 nM
KRAS G12C
  IC50: 10 to 100 nM

## CC[C@H]1N[C@H]1C(=O)N(C)CC(=O)N(C)[C@H](C(=O)N[C@H]1Cc2cc(O)cc(c2)-c2ccc3c(c2)c(c(-c2cccnc2[C@H](C)OC)n3CC)CC(C)(C)COC(=O)[C@@H]2CCCN(N2)C1=O)C(C)C [Example 262]
NCI-H358 (K-Ras G12C)
  IC50: 10 to 100 nM
AsPC-1 (K-Ras G12D) [1]
  IC50: 100 to 1000 nM
KRAS G12S
  IC50: 10 to 100 nM
NRAS Q61R
  IC50: 100 to 1000 nM
NRAS Q61K
  IC50: 100 to 1000 nM
NRAS G12C
  IC50: 10 to 100 nM
KRAS G12D
  IC50: 100 to 1000 nM
KRAS G13D
  IC50: 10 to 100 nM
NRAS WT
  IC50: 10 to 100 nM
KRAS WT
  IC50: 10 to 100 nM
KRAS G12V
  IC50: 10 to 100 nM
KRAS G13C
  IC50: 10 to 100 nM
KRAS Q61H
  IC50: 10 to 100 nM
AsPC-1 (K-Ras G12D) [2]
  EC50: < 5000 nM
KRAS G12C
  IC50: 10 to 100 nM
